From ChEMBL document CHEMBL5725844, “Indazolyl thiadiazolamines and related compounds for inhibition of Rho-associated protein kinase and the treatment of disease” (2018)
pIC50: −log10 of the molar value.

How the values were obtained:
[1] = biological target: Rho-associated protein kinase 2 (Homo sapiens, UniProt O75116); assay: (§1) Protein constructs were purified from a baculovirus expression system. The peptide substrate was fluorescent LANCE® Ultra ULight-CREBtide: […] (PerkinElmer, # TRF0107-D). Kinase reactions were carried out in a 10 μL volume in 384-well plates: 50 nM ULight-CREBtide substrate, 2 nM constitutively active ROCK1 or ROCK2 kinase, and test compound in DMSO (or DMSO only for controls) were diluted into assay buffer containing 50 mM Tris-HCl (pH=7.5), 10 mM MgCl2, 1 mM EGTA, 0.01% Tween-20, and 2 mM DTT such that the final concentration of DMSO was 0.5%. After a 90 minute incubation at room temperature on a shaker table, the kinase reaction was stopped by addition of 10 mM EDTA, and phosphorylation of the substrate was detected by adding 1 nM LANCE® Ultra Europium-anti-phospho-CREB (ser133) antibody (PerkinElmer, # TRF0200-D) and incubating for 60 minutes on a shaker at room temperature. The flurorescence resonance energy transfer (FRET) signals were read and analyzed on an Envision¿ 2103 Multilabel Reader (Perkin Elmer).
[2] = biological target: Rho-associated protein kinase 1 (Homo sapiens, UniProt Q13464); assay: as §1
Rho-associated protein kinase 1, sequence (Q13464 whole entry): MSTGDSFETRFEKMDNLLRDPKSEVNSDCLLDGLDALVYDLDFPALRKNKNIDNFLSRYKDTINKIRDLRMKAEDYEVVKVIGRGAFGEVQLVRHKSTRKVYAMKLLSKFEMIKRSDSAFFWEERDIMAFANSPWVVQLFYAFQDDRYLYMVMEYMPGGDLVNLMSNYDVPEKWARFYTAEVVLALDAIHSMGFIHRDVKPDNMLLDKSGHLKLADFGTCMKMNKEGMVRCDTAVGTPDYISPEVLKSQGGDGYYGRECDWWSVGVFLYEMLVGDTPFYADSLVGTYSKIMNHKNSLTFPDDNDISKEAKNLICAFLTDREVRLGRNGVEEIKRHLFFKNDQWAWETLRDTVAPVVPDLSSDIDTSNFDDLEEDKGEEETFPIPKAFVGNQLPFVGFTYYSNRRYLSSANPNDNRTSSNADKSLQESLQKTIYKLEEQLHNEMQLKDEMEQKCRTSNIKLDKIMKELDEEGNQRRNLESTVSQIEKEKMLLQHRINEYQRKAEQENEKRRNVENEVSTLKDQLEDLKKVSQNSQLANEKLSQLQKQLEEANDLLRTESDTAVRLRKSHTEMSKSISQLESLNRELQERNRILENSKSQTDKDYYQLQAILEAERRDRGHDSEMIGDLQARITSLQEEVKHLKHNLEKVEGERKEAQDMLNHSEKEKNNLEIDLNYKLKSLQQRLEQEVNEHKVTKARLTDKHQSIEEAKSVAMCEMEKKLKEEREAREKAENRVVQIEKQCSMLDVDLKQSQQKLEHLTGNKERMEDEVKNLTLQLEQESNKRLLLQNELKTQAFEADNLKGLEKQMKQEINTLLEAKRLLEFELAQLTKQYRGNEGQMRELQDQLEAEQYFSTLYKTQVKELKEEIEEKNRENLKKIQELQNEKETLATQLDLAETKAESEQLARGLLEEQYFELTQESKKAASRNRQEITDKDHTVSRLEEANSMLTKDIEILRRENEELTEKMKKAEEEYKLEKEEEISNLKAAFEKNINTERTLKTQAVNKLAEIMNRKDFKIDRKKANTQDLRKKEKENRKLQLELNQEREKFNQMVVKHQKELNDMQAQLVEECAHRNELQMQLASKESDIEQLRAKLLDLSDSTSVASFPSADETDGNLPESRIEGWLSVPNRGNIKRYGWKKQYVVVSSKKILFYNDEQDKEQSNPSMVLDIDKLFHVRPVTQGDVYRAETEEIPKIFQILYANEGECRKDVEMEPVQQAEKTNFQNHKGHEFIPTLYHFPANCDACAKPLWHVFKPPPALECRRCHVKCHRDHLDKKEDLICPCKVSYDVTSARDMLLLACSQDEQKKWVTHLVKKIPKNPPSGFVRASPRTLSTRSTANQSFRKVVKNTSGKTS

Rho-associated protein kinase 2, sequence (O75116 whole entry): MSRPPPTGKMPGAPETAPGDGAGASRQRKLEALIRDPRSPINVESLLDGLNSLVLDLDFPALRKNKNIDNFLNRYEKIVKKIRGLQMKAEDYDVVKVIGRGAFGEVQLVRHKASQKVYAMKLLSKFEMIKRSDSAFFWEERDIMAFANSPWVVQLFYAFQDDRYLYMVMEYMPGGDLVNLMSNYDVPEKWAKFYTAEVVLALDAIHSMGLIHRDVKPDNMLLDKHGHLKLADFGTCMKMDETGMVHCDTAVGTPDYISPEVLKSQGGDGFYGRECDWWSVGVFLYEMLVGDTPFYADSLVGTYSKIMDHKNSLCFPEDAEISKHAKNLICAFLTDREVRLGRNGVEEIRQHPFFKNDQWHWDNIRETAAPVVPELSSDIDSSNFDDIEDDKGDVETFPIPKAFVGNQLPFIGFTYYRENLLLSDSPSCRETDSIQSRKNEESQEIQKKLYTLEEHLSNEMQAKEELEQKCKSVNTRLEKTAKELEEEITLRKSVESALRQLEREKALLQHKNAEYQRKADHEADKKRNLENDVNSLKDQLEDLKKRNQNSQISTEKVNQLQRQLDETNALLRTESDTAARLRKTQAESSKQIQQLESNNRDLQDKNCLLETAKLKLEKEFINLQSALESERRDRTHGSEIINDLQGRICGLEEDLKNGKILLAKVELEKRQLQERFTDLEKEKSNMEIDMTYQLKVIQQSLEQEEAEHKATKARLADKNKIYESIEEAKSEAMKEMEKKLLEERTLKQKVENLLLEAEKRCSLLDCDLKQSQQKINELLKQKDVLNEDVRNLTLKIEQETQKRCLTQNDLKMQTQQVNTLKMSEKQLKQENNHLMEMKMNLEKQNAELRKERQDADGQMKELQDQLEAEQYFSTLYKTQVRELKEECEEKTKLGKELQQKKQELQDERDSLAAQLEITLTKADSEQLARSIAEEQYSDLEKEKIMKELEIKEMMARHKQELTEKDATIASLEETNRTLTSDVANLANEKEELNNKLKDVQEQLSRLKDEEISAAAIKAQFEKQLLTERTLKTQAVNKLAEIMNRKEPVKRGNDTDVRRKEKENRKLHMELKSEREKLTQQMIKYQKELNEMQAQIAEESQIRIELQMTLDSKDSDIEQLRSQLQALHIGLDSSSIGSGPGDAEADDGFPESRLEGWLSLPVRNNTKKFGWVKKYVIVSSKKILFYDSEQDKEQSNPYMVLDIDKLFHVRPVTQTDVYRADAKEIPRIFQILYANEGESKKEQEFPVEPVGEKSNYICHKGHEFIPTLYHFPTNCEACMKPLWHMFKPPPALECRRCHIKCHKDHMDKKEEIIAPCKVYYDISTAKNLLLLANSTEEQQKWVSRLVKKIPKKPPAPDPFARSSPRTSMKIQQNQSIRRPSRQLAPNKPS

Row | SMILES | pIC50 [1] | pIC50 [2]
1 | CC(C)(O)C(=O)Nc1cccc(-c2nnc(Nc3ccc4[nH]ncc4c3Cl)s2)c1 | > 6.00 | > 6.00
2 | CC(=O)Nc1cc(C(N)=O)cc(-c2nnc(Nc3ccc4[nH]ncc4c3Cl)s2)c1 | > 6.00 | > 6.00
3 | CCOC(=O)N(c1nnc(-c2cccc(NC(=O)Cc3ccc(F)cc3)c2)s1)c1ccc2[nH]ncc2c1Cl |  | < 4.52
4 | CC(=O)Nc1cc(C(=O)N2CCNCC2)cc(-c2nnc(Nc3ccc4[nH]ncc4c3Cl)s2)c1 | > 6.00 | > 6.00
5 | CC(=O)Nc1cccc(-c2nnc(Nc3ccc4[nH]ncc4c3Br)s2)c1 | > 6.00 | > 6.00
6 | CNC(=O)c1cc(NC(C)=O)cc(-c2nnc(Nc3ccc4[nH]ncc4c3Cl)s2)c1 | > 6.00 | > 6.00
7 | CCCCOC(=O)N(c1nnc(-c2cccc(NC(=O)Cc3ccc(F)cc3)c2)s1)c1ccc2[nH]ncc2c1Cl | > 6.00 | < 4.52
8 | Cc1cn2cccc(-c3nnc(Nc4ccc5[nH]ncc5c4Cl)s3)c2n1 | > 6.00 | > 6.00
9 | CC(=O)Nc1cccc(-c2nnc(Nc3ccc4[nH]ncc4c3)s2)c1 | > 6.00 | > 6.00
10 | CC(=O)Nc1cc(C(=O)NCCN(C)C)cc(-c2nnc(Nc3ccc4[nH]ncc4c3Cl)s2)c1 | > 6.00 | > 6.00
11 | CC(=O)Nc1cc(C(=O)N2CCOCC2)cc(-c2nnc(Nc3ccc4[nH]ncc4c3Cl)s2)c1 | > 6.00 | > 6.00
12 | O=C(Nc1cccc(-c2nnc(Nc3ccc4[nH]ncc4c3Cl)s2)c1)C(F)(F)F | > 6.00 | < 4.52
13 | N#Cc1ccc(-c2cn3cccc(-c4nnc(Nc5ccc6[nH]ncc6c5Cl)s4)c3n2)cc1 | > 6.00 | < 4.52
14 | NCc1ccc(C(=O)Nc2cccc(-c3nnc(Nc4ccc5[nH]ncc5c4)s3)c2)cn1 | > 6.00 | > 6.00
15 | O=S(=O)(CCO)Nc1cccc(-c2nnc(Nc3ccc4[nH]ncc4c3)s2)c1 | > 6.00 | < 4.52
16 | CC(=O)Nc1cc(C)cc(-c2nnc(Nc3ccc4[nH]ncc4c3)s2)c1 | > 6.00 | < 4.52
17 | CC(=O)Nc1cc(C(N)=O)cc(-c2nnc(Nc3ccc4[nH]ncc4c3)s2)c1 | > 6.00 | > 6.00
18 | COCCOC(=O)Nc1cc(-c2nnc(Nc3ccc4[nH]ncc4c3Cl)s2)ccn1 | > 6.00 | < 4.52

Continued, values first:

Row | pIC50 [1] | pIC50 [2] | SMILES
19 | > 6.00 |  | CC1(C(=O)Nc2cccc(-c3nnc(Nc4ccc5[nH]ncc5c4Cl)s3)c2)CCCCC1
20 |  | < 4.52 | Clc1c(Nc2nnc(-c3cccc4c3ncn4CCN3CCCC3)s2)ccc2[nH]ncc12
21 | > 6.00 | > 6.00 | CN(C)CCn1cnc2c(-c3nnc(Nc4ccc5[nH]ncc5c4Cl)s3)cccc21
22 | > 6.00 | > 6.00 | CN1CCC(C(=O)Nc2cccc(-c3nnc(Nc4ccc5[nH]ncc5c4Cl)s3)c2)CC1
23 | > 6.00 |  | CN1CC(C(=O)Nc2cccc(-c3nnc(Nc4ccc5[nH]ncc5c4Cl)s3)c2)C1
24 | > 6.00 | > 6.00 | O=C(CC(F)(F)F)Nc1cccc(-c2nnc(Nc3ccc4[nH]ncc4c3Cl)s2)c1
25 | > 6.00 | > 6.00 | Clc1c(Nc2nnc(-c3cccc(-c4nccn4CCN4CCOCC4)c3)s2)ccc2[nH]ncc12
26 | > 6.00 | < 4.52 | Clc1c(Nc2nnc(-c3cccc(-c4nccn4CCN4CCCC4)c3)s2)ccc2[nH]ncc12
27 | > 6.00 | < 4.52 | CC(=O)Nc1ccc(Cl)c(-c2nnc(Nc3ccc4[nH]ncc4c3Cl)s2)c1
28 | > 6.00 |  | O=C(Nc1cccc(-c2nnc(Nc3ccc4[nH]ncc4c3Cl)s2)c1)C1CCNCC1
29 | > 6.00 | > 6.00 | O=C(Nc1cccc(-c2nnc(Nc3ccc4[nH]ncc4c3Cl)s2)c1)C1CCCCC1
